Source: US12503707B2, “Methods, plants and compositions for overcoming nutrient suppression of mycorrhizal symbiosis” (Cambridge Enterprise Limited, priority 2020, dated 2025)
Each block holds one molecule with its values, some of them ahead of it.

How the values were obtained:
[1] = test system: R. irregularis colonization of H. vulgare; test: Mycorrhizal colonization assay with R. irregularis; format: in vivo, Hordeum vulgare; conditions: 0.1 μM GR24 twice a week
Procedure: FIGS. 14A-14D provide the effects of treating H. vulgare plants with a strigolactone or with both a strigolactone and a CEP peptide. […] Plants were grown under high nitrate and high phosphate (5 mM NO3^− and 0.5 mM PO4^−) and cells were treated with 10^−7 M SmLCO. The top trace represents cells without any additional treatment, the middle trace represents cells that were pre-treated with 1 μM 5-deoxystrigol, and the bottom trace represents cells that were pre-treated with 1 μM 5-deoxystrigol and 1 μM CEP3. The scale bar indicates a span of 10 minutes, and the fractions indicate the number of cells that responded over the total number of cells analyzed. FIGS. 14B-14C provide the level of mycorrhizal colonization of H. vulgare when treated with the synthetic strigolactone analog GR24 under different nutrient conditions, as determined in two separate experiments. In FIG. 14B, colonization was measured 7 weeks post inoculation, and the x-axis indicates the nutrient conditions tested, and whether the plants were treated with GR24. […] In FIG. 14C, colonization was measured 6 weeks post inoculation, and the x-axis indicates the nutrient conditions tested, and whether the plants were treated with GR24. […] In FIGS. 14B-14C, the y-axis represents the percentage of roots colonized by mycorrhizal fungi, and the shading of each bar represents the fungal structure quantified. […]

[2] = test system: M. truncatula LysM receptor-like kinase (LysM RLK) genes; test: LysM RLK gene expression by qRT-PCR after GR24 and/or TIS108 treatment; format: in vivo, Medicago truncatula; conditions: BNM plates 4 days
Procedure: FIGS. 24A-24E show the effects of nutrient starvation and strigolactone and/or karrikin treatment on M. truncatula RLK gene expression levels. […] As indicated from left to right above the heat map, M. truncatula was grown under limiting nitrate (−N, 0 mM NO3^− and 3.75 mM PO4^−), limiting phosphate (−P, 5 mM NO3^− and 0.0075 mM PO4^−), or limiting nitrate and phosphate (−N−P, 0 mM NO3^− and 0.0075 mM PO4^−). The relative expression level of each condition is normalized to expression when plants were grown under replete nitrate and replete phosphate (+N+P, 5 mM NO3^− and 3.75 mM PO4^−). As indicated from left to right below the heatmap, expression was measured either 5, 10, or 15 days after germination (“DAG”). The color scale indicates the relative expression levels, with black representing the lowest expression and light grey representing the highest expression. FIGS. 24B-24E show expression of M. truncatula genes after seedlings were grown on BNM plates for 4 days, and then treated with either DMSO (mock), 0.1 μM synthetic strigolactone analog GR24, 1 μM strigolactone-biosynthesis inhibitor TIS108, or both (0.1 μM GR24 and 1 μM TIS108) for 24 hours, as indicated on the x-axis. […] In each of FIGS. 24B-24E gene expression was determined by RT-qPCR, relative expression levels is on the y-axis, and the asterisks indicate the relative level of statistical significance as determined by a Student's t-test.
Gene expression was measured by qRT-PCR (FIGS. 2A-2B). Plants were grown on modified BNM plates (described above) with 100 nM AVG for four days, the plants were then carefully transferred to liquid BNM with the appropriate nutrient concentrations along with COs, PGN, flg22 and SmLCO, at a final concentration of 10^−7 M COs, 10^−7 M flg22, 0.4 mg/ml PGN and 10^−8 M SmLCO. After incubation for 6 h, plant roots were harvested and frozen in liquid nitrogen. […] An aliquot of each total RNA sample was used to determine RNA concentration and purity assessed on the NanoDrop ND-1000 spectral photometer (Peglab, Erlangen, Germany). RNA integrity was analyzed on the 2100 Bioanalyzer using RNA 6000 Nano LabChip Kits (Agilent Technologies). […] Gene expression was determined by an ABI 7500 using a SYBR green PCR master mix (Bio-Rad). […] Expression data were analyzed from the average of threshold cycle (CT) value, using an M. truncatula endogenous Histone 2A (H2A) gene as reference and fold induction calculated for treatment of elicitors relative to treatment with DMSO. […]
Gene expression was measured by RNA-seq. […] M. truncatula RLK gene expression levels were measured by qRT-PCR (FIGS. 24B-24E), as described in Example 1.

[3] = test system: M. truncatula root epidermal cells; test: Nuclear calcium imaging after CO/LCO treatment; format: cell-based, Medicago truncatula; conditions: lateral roots; −N−P and +N+P conditions
Procedure: For calcium analyses M. truncatula seedlings were grown on Buffered Nodulation Media (BNM) agar with 100 nM Aminoethoxyvinylglycine (AVG; Sigma-Aldrich) until lateral roots emerged (FIGS. 1A-1B). […] The lateral roots were fixed in a small chamber made on a cover glass using vacuum grease, with 500 μl of BNM buffer. The roots were then treated with COs (CO4 or CO8), LCOs (non-sulfated LCO (NS-LCO) or a LCO derived from Sinorhizobium meliloti (SmLCO)), at the concentrations indicated in FIGS. 1A-1B. Recordings were collected on an inverted epifluorescence microscope (model TE2000; Nikon). Yellow cameleon YC3.6 was excited with an 458-nm laser and imaged using emission filters 476-486 nm for CFP and 529-540 nm for YFP. The calcium images were collected every 5 seconds with 1 second exposure and analyzed using Metafluor (Molecular Devices). Calcium traces used the intensity ratio of YFP to CFP. For better visualization of calcium signals, the traces were flattened to a single axis by subtracting the values with moving average as the following formula:
[formula] Where Sf is the flattened signal, So is the original signal, and MA is the moving average of the value. For each element i, MA is calculated as:
[formula] where m is the arbitrary number of points to calculate the average, w=[m/2] and xj is the signal at point j. M. truncatula Gene Expression

[4] = then 24 hours, 0.1 μM GR24, 1 μM TIS108

- MtKUF1 expression compared to mock treatment [2, 4]: significantly increased
- MtLYK8 expression compared to mock treatment [2, 4]: significantly increased
- MtLYK10 expression compared to mock treatment [2, 4]: significantly increased
SMILES: CC1=C[C@H](O/C=C2/C(=O)O[C@@H]3c4ccccc4C[C@H]23)OC1=O [GR24]
- promotion of mycorrhizal colonization ([1]; 7 weeks post inoculation, no inhibitory effect of high phosphate seen): could not be observed
- mycorrhizal colonization ([1]; high phosphate (500 μM) and low nitrate (0.5 mM), 6 weeks post inoculation): promoted mycorrhizal colonization

SMILES: CC(=O)N[C@H]1[C@H](O[C@H]2[C@H](O)[C@@H](NC(C)=O)C(O)O[C@@H]2CO)O[C@H](CO)[C@@H](O[C@@H]2O[C@H](CO)[C@@H](O[C@@H]3O[C@H](CO)[C@@H](O)[C@H](O)[C@H]3NC(C)=O)[C@H](O)[C@H]2NC(C)=O)[C@@H]1O (some centres unmarked) [CO4]
- nuclear symbiotic calcium oscillations (Cells spiking) [3]: promoted nuclear symbiotic oscillations

SMILES: CC(=O)N[C@H]1[C@H](O[C@H]2[C@H](O)[C@@H](NC(C)=O)[C@H](O[C@H]3[C@H](O)[C@@H](NC(C)=O)[C@H](O[C@H]4[C@H](O)[C@@H](NC(C)=O)C(O)O[C@@H]4CO)O[C@@H]3CO)O[C@@H]2CO)O[C@H](CO)[C@@H](O[C@@H]2O[C@H](CO)[C@@H](O[C@@H]3O[C@H](CO)[C@@H](O[C@@H]4O[C@H](CO)[C@@H](O[C@@H]5O[C@H](CO)[C@@H](O)[C@H](O)[C@H]5NC(C)=O)[C@H](O)[C@H]4NC(C)=O)[C@H](O)[C@H]3NC(C)=O)[C@H](O)[C@H]2NC(C)=O)[C@@H]1O (some centres unmarked) [CO8]
- nuclear symbiotic calcium oscillations (Cells spiking) [3]: promoted nuclear symbiotic oscillations

- LysM RLK gene expression compared to mock treatment ([2]; then 1 μM TIS108 for 24 hours): either the same or lower
SMILES: O=C(c1ccccc1)C(CCCCOc1ccccc1)n1cncn1 (centres unmarked) [TIS108]
